According to patent US9248202B2, “Two-photon probe for detecting copper(II) ion and quantitative estimation of copper(II) ion in human tissue using the same” (Korea University Research and Business Foundation, priority 2014, dated 2016):

Tests used:
[1] = Two-photon action cross section; type: physicochemical; settings: at 880 nm, EtOH/HEPES (9/1 v/v, pH 7.0)
Description: Referring to FIG. 4(a), the Φδmax value of ACCu2 in EtOH/HEPES (9/1 v/v, pH 7.0) buffer was 32 GM at 880 nm, while those for FL and IR were 32 GM at 880 nm and 46 GM at 750 nm. The lower Φδmax value of ACCu2 at 750 nm than that of IR is because of decreased fluorescence resonance energy transfer (FRET) from IR to FL and it allows to obtain bright TPM images of cells and ^.tissues labeled with ACCu2.
The two-photon cross section (δ) was determined by the fe tosecond (fs) fluorescence measurement technique described in the literature (S. K. Lee, W. J. Yang, J. J. Choi, C. H. Kim, S.-J. Jeon, B. R. Cho, Org. Lett 2005, 7, 323-326.), ACCu2 was dissolved in 20 mM HEPES buffer (pH 7.0) to a concentration of 3.0×10^−6 M and then two-photon induced fluorescence intensity was measured at 740-940 nm using rhodamine 6G as a reference, whose two-photon property has been well characterized. The intensities of two-photon induced fluorescence of the reference and the sample were determined at the same excitation wavelength.
The two-photon cross section can be calculated from equation (3). δ=δr(SsΦrΦrcr)/(SrΦsΦscs) Equation (3)
wherein s and r stand for the sample, i.e., ACCu2, and the reference, respectively. S denotes the intensity of the signal collected using a CCD detector, Φ is the fluorescence quantum yield, Φ is the overall fluorescence collection efficiency of the experimental apparatus, c is the number density of molecules in solution, and δr is the two-photon cross section of the reference molecule.

human colon tissue = assay: Quantitative estimation of copper(II) ion in human colon tissue by TPM; settings: for average Ired/Iblue ratio: 20 μM ACCu2
Source text: Colon slices were obtained from outpatients who underwent elective colonoscopies at the Korea University Medical Center Anam Hospital. The volunteers were recruited to participate in the experiment, which was approved by the hospital ethics committee, and all the participating patients provided informed consents. The patients who had known or suspected bleeding disorders, an international normalized ratio of prothrombin time exceeding 1.4 a platelet count of <100,000 or who had taken aspirin within the previous 5 days were excluded.
During the colonoscopy examination, tissues were obtained from malignant lesions, adenomas and normal mucosa by biopsy forceps. Normal colon mucosal and adenoma or adenocarcinoma tissues were collected from the same patient. Standard biopsy forceps (Olympus Medical Systems Corporation, Tokyo, Japan) were used to obtain paired mucosal pinch biopsy specimens from the colon. 28, 10 and 6 tissue samples were acquired from normal, polyp and cancer tissues, respectively. The tissues were placed in sterile specimen bottles containing PBS. Half of the normal tissue samples were treated with EDTA (1 M) for 40 minutes. Then, the tissue samples were stained with 20 μM ACCu2 in artificial spinal fluid for 1-2 hours at 37.8° C. and then imaged.
As a result, clinical important images were obtained at depths of 90-190 μm in the mucosal and submucosal layers, as shown in FIG. 11(a).

[2] = Fluorescence titration with copper(II) ion (one-photon and two-photon); type: binding
Description: Referring to FIG. 3(b), when small increments of copper(II) ion were added to ACCu2 in EtOH/HEPES (9/1 viv, pH=7.0), the TPEF intensity at the channel 2 (Ired) decreased gradually without any appreciable change at the channel 1 (Iblue).
The dissociation constant (Kd) can be calculated using Equation (2): […]
wherein I is the fluorescence intensity, Ifinal is the fluorescence intensity for the CU^2+-ACCu2 complex and Iinitial is the fluorescence intensity for ACCu2.
The dissociation constants (Kd^OP and Kd^TP) of ACCu2 for the OP and TP processes can be calculated from the fluorescence titration curves shown in FIG. 3(b). […] These indicate 1:1 complexation between the probe and the cation.
Referring to FIG. 5(a), the fluorescence intensities of ACCu2 according to the present disclosure measured by the OP (one-photon) and TP (two-photon) processes decreased by 10-fold in the presence of 200 μM of copper(II) ion. […] This means that quantitative measurement of copper(II) ion is possible in this concentration range. Moreover, the Ired/Iblue ratios determined in the two-photon mode were well fitted by the titration curve obtained in the one-photon mode.

[3] = EDTA-treated normal colon tissue

For COCCOCCOCCOc1ccc2c(ccc3cc(C(=O)N4CCN(C(=O)c5ccc(CNC(=O)c6cc7cc8ccc(N(C)C)cc8cc7oc6=O)nc5)CC4)c(=O)oc32)c1 [ACCu2], the “Φδmax (two-photon action cross section)” value [1] was 32 GM, the “copper(II) ion concentration” value (human colon tissue; [3]) was 0.0 ± 0.1 µM and the “average Ired/Iblue ratio” value (human colon tissue; [3]) was 10.0±0.3. For the same molecule, the “copper(II) ion concentration” value (human colon tissue; cancer colon tissue) was 22 ± 3 µM, the “average Ired/Iblue ratio” value (human colon tissue; cancer colon tissue) was 5.2±0.6 and the “copper(II) ion concentration” value (human colon tissue; normal colon tissue) was 8.2 ± 0.3 µM. For the same molecule, the “average Ired/Iblue ratio” value (human colon tissue; normal colon tissue) was 8.3±0.4, the “copper(II) ion concentration” value (human colon tissue; polyp colon tissue) was 13 ± 2 µM and the “average Ired/Iblue ratio” value (human colon tissue; polyp colon tissue) was 7.2±0.5. For the same molecule, the “detection limit for copper ion by TPM” value [2] was 0.84 µM, the “decrease of fluorescence intensity” value ([2]; OP and TP processes, in the presence of 200 μM copper(II) ion) was 10 fold and the “copper(II) ion concentration range in which Ired/Iblue plot is linear” value ([2]; titration curve FIG. 5(b)) was 0 to 0.25 µM.
